The results in this text go back to patent US12378249B2, “Isoquinoline compounds and uses thereof” (Genentech, Inc., priority 2018, dated 2025).

Chain of HPK1 (Q92918 whole entry T165E/S171E): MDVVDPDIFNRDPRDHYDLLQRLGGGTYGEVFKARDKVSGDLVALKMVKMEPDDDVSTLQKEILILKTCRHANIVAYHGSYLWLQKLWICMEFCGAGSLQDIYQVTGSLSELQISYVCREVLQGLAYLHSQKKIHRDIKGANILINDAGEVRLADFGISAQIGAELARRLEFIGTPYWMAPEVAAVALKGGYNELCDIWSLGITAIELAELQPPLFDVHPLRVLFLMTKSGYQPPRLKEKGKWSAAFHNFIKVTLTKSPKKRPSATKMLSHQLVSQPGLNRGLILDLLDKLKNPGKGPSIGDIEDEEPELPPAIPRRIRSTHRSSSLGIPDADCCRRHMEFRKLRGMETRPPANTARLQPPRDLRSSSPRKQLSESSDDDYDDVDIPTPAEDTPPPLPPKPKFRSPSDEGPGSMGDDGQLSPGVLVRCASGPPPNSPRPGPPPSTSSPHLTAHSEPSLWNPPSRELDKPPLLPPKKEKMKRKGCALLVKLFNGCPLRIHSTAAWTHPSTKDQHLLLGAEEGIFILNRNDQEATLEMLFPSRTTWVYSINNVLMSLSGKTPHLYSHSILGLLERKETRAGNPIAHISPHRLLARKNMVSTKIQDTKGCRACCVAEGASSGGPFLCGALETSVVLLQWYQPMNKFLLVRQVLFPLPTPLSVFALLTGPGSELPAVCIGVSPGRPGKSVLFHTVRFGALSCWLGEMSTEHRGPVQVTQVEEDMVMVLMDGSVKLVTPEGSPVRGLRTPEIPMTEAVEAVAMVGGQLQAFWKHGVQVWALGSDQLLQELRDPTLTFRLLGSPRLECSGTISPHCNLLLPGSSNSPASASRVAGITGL

This assay deals with HPK1 (Homo sapiens (Human), UniProt Q92918, S171E/T165E). Nature of the assay: HPK1-FL HTRF Enzymatic Assay (HTRF). Conditions: HPK full length T165E S171E 0.125 nM, ATP 1 mM, Biotin-SLP76 100 nM, read-out: HPK1 Ki (nM), H = HTRF. In kind it is biochemical. The method, boiled down:
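Ki derived from % activity calculated from the TR-FRET 665/620 ratio, using Eu-anti-pSLP76 and SA-XL665 detection added for 60 min. Reaction: compound preincubated 30 min with full-length double-mutant HPK1, then 60 min with Biotin-SLP-76 and 1 mM ATP, pH 7.5 HEPES buffer.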
(TR-FRET usually uses a lanthanide donor and a delayed reading to cut background.)
A word on the Ki: it is the equilibrium dissociation constant of an inhibitor or competing ligand from its target. On to `COc1cc(C)c(-c2cc3cc(Nc4cc5n(n4)CC(=O)N(C)CC5)ncc3cc2F)cn1` [Compound 137, 2-((7-fluoro-6-(6-methoxy-4-methylpyridin-3-yl)isoquinolin-3-yl)amino)-6-methyl-5,6-dihydro-4H-pyrazolo[1,5-d][1,4]diazepin-7(8H)-one], for which the Ki turned out to be 2.2 nM.

Consider `Cc1c(-c2cc3cc(Nc4cc5n(n4)CC(=O)N(C)CC5)ncc3c(F)c2F)cnc2c1NCCO2` [Compound 138, 2-((7,8-difluoro-6-(8-methyl-2,3-dihydro-1H-pyrido[2,3-b][1,4]oxazin-7-yl)isoquinolin-3-yl)amino)-6-methyl-5,6-dihydro-4H-pyrazolo[1,5-d][1,4]diazepin-7(8H)-one], for which the Ki worked out at 0.013 nM.

On to `Cc1c(-c2cc3cc(Nc4cc5n(n4)CC(=O)N(C(C)C)CC5)ncc3cc2F)cnc2oc(=O)[nH]c12` [Compound 142, 6-(7-fluoro-3-((6-isopropyl-7-oxo-5,6,7,8-tetrahydro-4H-pyrazolo[1,5-d][1,4]diazepin-2-yl)amino)isoquinolin-6-yl)-7-methyloxazolo[5,4-b]pyridin-2(1H)-one], for which the Ki was found to be 1.9 nM.

`Cc1c(-c2cc3cc(Nc4cc5n(n4)Cc4nccn4CC5)ncc3cc2F)cnc2c1NCCO2` [Compound 143, N-(7-fluoro-6-(8-methyl-2,3-dihydro-1H-pyrido[2,3-b][1,4]oxazin-7-yl)isoquinolin-3-yl)-5,6-dihydro-11H-imidazo[1,2-a]pyrazolo[1,5-d][1,4]diazepin-8-amine]: the Ki is 0.013 nM.

As for `Cc1c(N)cncc1-c1cc2cc(Nc3cc4n(n3)CC(=O)NCC4)ncc2cc1F` [Compound 144, 2-((6-(5-amino-4-methylpyridin-3-yl)-7-fluoroisoquinolin-3-yl)amino)-5,6-dihydro-4H-pyrazolo[1,5-d][1,4]diazepin-7(8H)-one], the Ki came to 0.062 nM.

With `Cc1c(-c2cc3cc(Nc4cc5n(n4)CC(=O)N(CCO)CC5)ncc3cc2F)cnc2c1NCCO2` [Compound 145, 2-((7-fluoro-6-(8-methyl-2,3-dihydro-1H-pyrido[2,3-b][1,4]oxazin-7-yl)isoquinolin-3-yl)amino)-6-(2-hydroxyethyl)-5,6-dihydro-4H-pyrazolo[1,5-d][1,4]diazepin-7(8H)-one], the Ki amounted to 0.013 nM.

With `Cc1c(-c2ccc3cnc(Nc4cc5n(n4)CC(=O)N(CCO)CC5)cc3c2F)cnc2c1NCCO2` [Compound 146, 2-((5-fluoro-6-(8-methyl-2,3-dihydro-1H-pyrido[2,3-b][1,4]oxazin-7-yl)isoquinolin-3-yl)amino)-6-(2-hydroxyethyl)-5,6-dihydro-4H-pyrazolo[1,5-d][1,4]diazepin-7(8H)-one], the Ki came out at 0.034 nM.

Regarding `Cc1c(-c2cc3cc(Nc4cc5n(n4)Cc4nncn4CC5)ncc3cc2F)cnc2c1NCCO2` [Compound 151, N-(7-fluoro-6-(8-methyl-2,3-dihydro-1H-pyrido[2,3-b][1,4]oxazin-7-yl)isoquinolin-3-yl)-5,6-dihydro-11H-pyrazolo[1,5-d][1,2,4]triazolo[4,3-a][1,4]diazepin-8-amine], the Ki is 0.013 nM.

As for `Cc1c(N)cncc1-c1ccc2cnc(Nc3cc4n(n3)CC(=O)N(C(C)C)CC4)cc2c1Cl` [Compound 152, 2-((6-(5-amino-4-methylpyridin-3-yl)-5-chloroisoquinolin-3-yl)amino)-6-isopropyl-5,6-dihydro-4H-pyrazolo[1,5-d][1,4]diazepin-7(8H)-one], the Ki is 0.028 nM.

In the case of `COCCN1CCc2cc(Nc3cc4cc(-c5cnc6c(c5C)NCCO6)c(F)cc4cn3)nn2CC1=O` [Compound 155, 2-((7-fluoro-6-(8-methyl-2,3-dihydro-1H-pyrido[2,3-b][1,4]oxazin-7-yl)isoquinolin-3-yl)amino)-6-(2-methoxyethyl)-5,6-dihydro-4H-pyrazolo[1,5-d][1,4]diazepin-7(8H)-one], the Ki worked out at 0.013 nM.

Turning to `COCCN1CCc2cc(Nc3cc4cc(-c5cncc(N)c5C)c(F)cc4cn3)nn2CC1=O` [Compound 156, 2-((6-(5-amino-4-methylpyridin-3-yl)-7-fluoroisoquinolin-3-yl)amino)-6-(2-methoxyethyl)-5,6-dihydro-4H-pyrazolo[1,5-d][1,4]diazepin-7(8H)-one], the Ki turned out to be 0.017 nM.

`Cc1c(N)cncc1-c1cc2cc(Nc3cc4n(n3)Cc3nccn3CC4)ncc2c(F)c1F` [Compound 157, N-(6-(5-amino-4-methylpyridin-3-yl)-7,8-difluoroisoquinolin-3-yl)-5,6-dihydro-11H-imidazo[1,2-a]pyrazolo[1,5-d][1,4]diazepin-8-amine]: the Ki was 0.014 nM.

As for `Cc1c(N)cncc1-c1cc2cc(Nc3cc4n(n3)CC(=O)N(CC(C)(C)O)CC4)ncc2cc1F` [Compound 158, 2-((6-(5-amino-4-methylpyridin-3-yl)-7-fluoroisoquinolin-3-yl)amino)-6-(2-hydroxy-2-methylpropyl)-5,6-dihydro-4H-pyrazolo[1,5-d][1,4]diazepin-7(8H)-one], the Ki amounted to 0.023 nM.

`Cc1c(N)cncc1-c1cc2cc(Nc3cc4n(n3)CC(=O)N(CCO)CC4)ncc2cc1F` [Compound 159, 2-((6-(5-amino-4-methylpyridin-3-yl)-7-fluoroisoquinolin-3-yl)amino)-6-(2-hydroxyethyl)-5,6-dihydro-4H-pyrazolo[1,5-d][1,4]diazepin-7(8H)-one]: the Ki turned out to be 0.015 nM.

For the molecule `Cc1c(-c2cc3cc(Nc4cc5n(n4)CC(=O)NCC5)ncc3cc2F)cnc2c1NCCO2` [Compound 160, 2-((7-fluoro-6-(8-methyl-2,3-dihydro-1H-pyrido[2,3-b][1,4]oxazin-7-yl)isoquinolin-3-yl)amino)-5,6-dihydro-4H-pyrazolo[1,5-d][1,4]diazepin-7(8H)-one], the inhibitory constant (Ki) was 0.013 nM.

For `Cc1c(-c2cc3cc(Nc4cc5n(n4)Cc4nccn4CC5)ncc3c(F)c2F)cnc2c1NCCO2` [Compound 161, N-(7,8-difluoro-6-(8-methyl-2,3-dihydro-1H-pyrido[2,3-b][1,4]oxazin-7-yl)isoquinolin-3-yl)-5,6-dihydro-11H-imidazo[1,2-a]pyrazolo[1,5-d][1,4]diazepin-8-amine], the Ki stood at 0.014 nM.

As to `Cc1c(-c2cc3cc(Nc4cc5n(n4)CC(=O)N(C)CC5)ncc3cc2F)cnc2c1N(C)CCO2` [Compound 162, 2-((6-(1,8-dimethyl-2,3-dihydro-1H-pyrido[2,3-b][1,4]oxazin-7-yl)-7-fluoroisoquinolin-3-yl)amino)-6-methyl-5,6-dihydro-4H-pyrazolo[1,5-d][1,4]diazepin-7(8H)-one], the Ki was determined as 0.43 nM.

Consider `Cc1c(N)cncc1-c1cc2cc(Nc3cc4n(n3)Cc3ncc(C)n3CC4)ncc2cc1F` [Compound 163, N-(6-(5-amino-4-methylpyridin-3-yl)-7-fluoroisoquinolin-3-yl)-3-methyl-5,6-dihydro-11H-imidazo[1,2-a]pyrazolo[1,5-d][1,4]diazepin-8-amine], for which the Ki amounted to 0.013 nM.

For the molecule `Cc1c(N)cncc1-c1cc2cc(Nc3cc4n(n3)CC(=O)N(CCN3CC(F)C3)CC4)ncc2cc1F` [Compound 164, 2-((6-(5-amino-4-methylpyridin-3-yl)-7-fluoroisoquinolin-3-yl)amino)-6-(2-(3-fluoroazetidin-1-yl)ethyl)-5,6-dihydro-4H-pyrazolo[1,5-d][1,4]diazepin-7(8H)-one], the Ki is 0.013 nM.
